Data set [1] has as its system SARS-CoV-2 clinical isolate. The experiment in a line: SARS-CoV-2 virus yield reduction assay in Vero E6 cells. The data set is classed as cell-based. Here is the method: At time 0 hr, Vero E6 cells were infected with virus in presence of the formulation or controls and incubated for 1 hour. After this incubation period the inoculum was removed and the cells were washed. Fresh formulation or controls were then added to the washed cells. At 24 hours post infection, Vero E6 cell supernatants were harvested and titrated, and the virus titration was incubated for 6 days prior to readout to determine any virus yield reduction. Separate tests were performed at four MOIs including 3.0 and 0.3, although only those two MOIs were titrated. The readout was by crystal violet (cell monolayer) staining, followed by CPE scoring.

Molecules are shown by their SMILES.

In the case of `O=C(O)CC(O)(CC(=O)O)C(=O)O` [citric acid pH 5.8, citric acid], the “In vitro antiviral action against SARS-CoV-2” value in data set [1] (FIGS. 33 and 34) is reported as “high in vitro antiviral action”. Besides, the “Cytotoxicity on the LDH assay” value in the data set with Vero E6 cells is given as “low cytotoxicity”.

For the compound `CCN(CC)CCCC(C)Nc1ccnc2cc(Cl)ccc12` (stereo not shown) [chloroquine, Chloroquine phosphate], the SARS-CoV-2 virus titre result is reported as “limit of detection” in data set [1] (FIG. 33, Run 1, MOI 3.0, 24 hours); “limit of detection” in data set [1] (FIG. 34, Run 2, MOI 3.0 and MOI 0.3, 48 hours).

These data come from patent US20220257642A1, “METHODS AND COMPOSITIONS FOR GENERATING NITRIC OXIDE AND USES THEREOF TO DELIVER NITRIC OXIDE VIA THE RESPIRATORY TRACT” (THIRTY RESPIRATORY LIMITED, priority 2019, published 2022).
